In US11542492B2 (Celgene CAR LLC, priority 2009, dated 2023):

How the values were obtained:
[1] = molecular target: T1, HCV NS3/4A 1b protease enzyme (wild type) (Hepatitis C virus genotype 1b, UniProt P26663); experiment: HCV protease FRET assay (IC50_APP), wild type NS3/4A 1b; assay type: biochemical
T1 construct: 10× stocks of NS3/4A protease enzyme from Bioenza (Mountain View, Calif.); purchased Bioenza
Method: HCV Protease FRET Assay for WT and Mutated NS3/4A 1b Enzymes (IC50_APP).
The following protocol was used to generate “apparent” IC50 (IC50_APP) values as depicted in Table 6, below. Without wishing to be bound by any particular theory, it is believed that IC50_APP, contrasted with IC50 values, may provide a more useful indication of time-dependent inhibition, and are thus more representative of binding affinity. […] 5 μL of each enzyme were added to Corning (#3575) 384-well, black, microtiter plates (Corning, N.Y.) after spotting a 0.5 μL volume of 50% DMSO and serially diluted compounds prepared in 50% DMSO. Protease reactions were immediately started after enzyme addition with the addition of 45 μL of the FRET substrate and monitored for 60-90 minutes at λex485/λem520 in a Synergy plate reader from BioTek (Winooski, Vt.). At the conclusion of each assay, progress curves from each well were examined for linear reaction kinetics and fit statistics (R^2, 95% confidence intervals, absolute sum of squares). Initial velocity (0 minutes to 15+ minutes) from each reaction was determined from the slope of a plot of relative fluorescence units vs time (minutes) and then plotted against inhibitor concentration as a percent of the no inhibitor and no enzyme controls to estimate apparent IC50 from log [Inhibitor] vs Response. (Variable Slope model in GraphPad Prism from GraphPad Software (San Diego, Calif.).)

[2] = molecular target: T2, HCV NS3 protease WT 1b (Hepatitis C virus genotype 1b, UniProt P26663); experiment: MALDI MS of intact HCV protease 1b WT incubated with compound; assay type: binding
T2 construct: The single-chain proteolytic domain (NS4A21-32-GSGS-NS33-631) was cloned into pET-14b; His tag (own knowledge of vector pET-14b); made in house; host or cells: Escherichia coli BL21
Method: Intact HCV (protease) 1bWT was incubated for 1 hr at a 10× fold excess of XVI-26 to protein. 3 ul aliquots of the samples were diluted with 10 ul of 0.1% TFA prior to micro C4 ZipTipping directly onto the MALDI target using Sinapinic acid as the desorption matrix (10 mg/mL in 0.1% TFA:Acetonitrile 50:50). […] Due to likely protein misfolding during protein purification, a small portion of the misfolded protein was not modified.
In order to determine whether the modification of the protein occurred at lysine, the pH from the above experiment was increased from 7.4 to 10.0. Because the compound lysine adduct would be an amide any increase in pH would have minimal effect on the modified protein. If however, the modification occurred at cysteine the resultant thioester bond would be unstable and the compound would hydrolyze off the protein.
Intact HCV (protease) 1bWT, C159S, and C159S/K136A were incubated for 1 hr at a 10× fold excess of XVI-26 to protein. 3 μl aliquots of the samples were diluted with 10 μl of 0.1% TFA prior to micro C4 ZipTipping directly onto the MALDI target using Sinapinic acid as the desorption matrix (10 mg/mL in 0.1% TFA:Acetonitrile 50:50).
Intact HCV (protease) WT1b was incubated for 1 hr at a 10× fold excess of XVI-1 (mw=782.87) to protein. 3 μl aliquots of the samples were diluted with 10 μl of 0.1% TFA prior to micro C4 ZipTipping directly onto the MALDI target using Sinapinic acid as the desorption matrix (10 mg/mL in 0.1% TFA:Acetonitrile 50:50). […] Due to some protein misfolding during the purification of the protein, the unfolded portion of the protein can not react with XVI-1.

Row | Structure (SMILES) | IC50 [1] | MS_HCVNS3_INTACT_NS3 WT 1b 1 HR [2] | conversion of HCV NS3 WT1b ([2]; 1 hr, 10× fold excess) | positive mass shift of HCV 1bWT ([2]; 1 hr, 10× fold excess of compound to protein)
1 | C=C[C@@H]1C[C@]1(NC(=O)[C@@H]1CC(Oc2cc(-c3ccccc3)nc3cc(OC)ccc23)CN1C(=O)[C@H](CNC(=O)[C@@H]1CCC(=O)O1)NC(=O)OC(C)(C)C)C(=O)NS(=O)(=O)C1CC1 (stereo partly drawn) [XVI-24, tert-butyl(2S)-1-((2S)-2-((1R,2S)-1-(cyclopropylsulfonylcarbamoyl)-2-vinylcyclopropylcarbamoyl)-4-(7-methoxy-2-phenylquinolin-4-yloxy)pyrrolidin-1-yl)-1-oxo-3-((S)-5-oxotetrahydrofuran-2-carboxamido)propan-2-ylcarbamate] | 1 to 10 nM | K (≤30% modification) | – | –
2 | C=C[C@@H]1C[C@]1(NC(=O)[C@@H]1CC(Oc2nccc3cc(OC)ccc23)CN1C(=O)[C@H](CC(=O)N1C[C@H]2C[C@@H]1C(=O)O2)NC(=O)OC(C)(C)C)C(=O)NS(=O)(=O)C1CC1 (some centres unmarked) [XVI-6] | 1 to 10 nM | H (>50% and ≤70% modification) | – | –
3 | C=C[C@@H]1C[C@]1(NC(=O)[C@@H]1CC(OC(=O)N2Cc3cccc(F)c3C2)CN1C(=O)[C@H](CCC(=O)N1C[C@H]2C[C@@H]1C(=O)O2)NC(=O)OC(C)(C)C)C(=O)NS(=O)(=O)C1CC1 (stereo partly drawn) [XVI-16, (5S)-1-((S)-2-(tert-butoxycarbonylamino)-5-oxo-5-((1R,4R)-3-oxo-2-oxa-5-azabicyclo[2.2.1]heptan-5-yl)pentanoyl)-5-((1R,2S)-1-(cyclopropylsulfonylcarbamoyl)-2-vinylcyclopropylcarbamoyl)pyrrolidin-3-yl 4-fluoroisoindoline-2-carboxylate] | < 1 nM | H (>50% and ≤70% modification) | – | –
4 | C=C[C@@H]1C[C@]1(NC(=O)[C@@H]1C[C@@H](Oc2nccc3cc(OC)ccc23)CN1C(=O)[C@H](CCC(=O)N1CCC1=O)NC(=O)OC(C)(C)C)C(=O)NS(=O)(=O)C1CC1 [XVI-1, tert-butyl (S)-1-((2S,4R)-2-((1R,2S)-1-(cyclopropylsulfonylcarbamoyl)-2-vinylcyclopropylcarbamoyl)-4-(6-methoxyisoquinolin-1-yloxy)pyrrolidin-1-yl)-1,5-dioxo-5-(2-oxoazetidin-1-yl)pentan-2-ylcarbamate] | < 1 nM | G (>70% modification) | ~72% | 755 Da
5 | C=C[C@@H]1C[C@]1(NC(=O)[C@@H]1CC(OC(=O)N2Cc3cccc(F)c3C2)CN1C(=O)[C@H](CCC(=O)N1C[C@@H]2C[C@H]1C(=O)O2)NC(=O)OC(C)(C)C)C(=O)NS(=O)(=O)C1CC1 (stereo partly drawn) [XVI-17, (5S)-1-((S)-2-(tert-butoxycarbonylamino)-5-oxo-5-((1S,4S)-3-oxo-2-oxa-5-azabicyclo[2.2.1]heptan-5-yl)pentanoyl)-5-((1R,2S)-1-(cyclopropylsulfonylcarbamoyl)-2-vinylcyclopropylcarbamoyl)pyrrolidin-3-yl 4-fluoroisoindoline-2-carboxylate] | < 1 nM | G (>70% modification) | – | –
6 | C=C[C@@H]1C[C@]1(NC(=O)[C@@H]1CC(OC(=O)N2Cc3cccc(F)c3C2)CN1C(=O)[C@H](CC(=O)N1C[C@@H]2C[C@H]1C(=O)O2)NC(=O)OC(C)(C)C)C(=O)NS(=O)(=O)C1CC1 (stereo partly drawn) [XVI-15, (5S)-1-((S)-2-(tert-butoxycarbonylamino)-4-oxo-4-((1S,4S)-3-oxo-2-oxa-5-azabicyclo[2.2.1]heptan-5-yl)butanoyl)-5-((1R,2S)-1-(cyclopropylsulfonylcarbamoyl)-2-vinylcyclopropylcarbamoyl)pyrrolidin-3-yl 4-fluoroisoindoline-2-carboxylate] | < 1 nM | H (>50% and ≤70% modification) | – | –
7 | C=C[C@@H]1C[C@]1(NC(=O)[C@@H]1C[C@@H](OC(=O)N2Cc3cccc(F)c3C2)CN1C(=O)[C@H](CNC(=O)c1coc(C(C)=O)c1)NC(=O)OC(C)(C)C)C(=O)NS(=O)(=O)C1CC1 [XVI-5] | 100 to 1000 nM | K (≤30% modification) | – | –
8 | C=C[C@@H]1C[C@]1(NC(=O)[C@@H]1CC(Oc2nccc3cc(OC)ccc23)CN1C(=O)[C@H](CCC(=O)N1C[C@@H]2C[C@H]1C(=O)O2)NC(=O)OC(C)(C)C)C(=O)NS(=O)(=O)C1CC1 (stereo partly drawn) [XVI-9, tert-butyl(2S)-1-((2S)-2-((1R,2S)-1-(cyclopropylsulfonylcarbamoyl)-2-vinylcyclopropylcarbamoyl)-4-(6-methoxyisoquinolin-1-yloxy)pyrrolidin-1-yl)-1,5-dioxo-5-((1S,4S)-3-oxo-2-oxa-5-azabicyclo[2.2.1]heptan-5-yl)pentan-2-ylcarbamate] | < 1 nM | H (>50% and ≤70% modification) | – | –
9 | C=C[C@@H]1C[C@]1(NC(=O)[C@@H]1CC(OC(=O)N2Cc3cccc(F)c3C2)CN1C(=O)[C@H](CC(=O)N1C[C@H]2C[C@@H]1C(=O)O2)NC(=O)OC(C)(C)C)C(=O)NS(=O)(=O)C1CC1 (stereo partly drawn) [XVI-14, (5S)-1-((S)-2-(tert-butoxycarbonylamino)-4-oxo-4-((1R,4R)-3-oxo-2-oxa-5-azabicyclo[2.2.1]heptan-5-yl)butanoyl)-5-((1R,2S)-1-(cyclopropylsulfonylcarbamoyl)-2-vinylcyclopropylcarbamoyl)pyrrolidin-3-yl 4-fluoroisoindoline-2-carboxylate] | < 1 nM | H (>50% and ≤70% modification) | – | –
10 | C=C[C@@H]1C[C@]1(NC(=O)[C@@H]1CC(Oc2nccc3cc(OC)ccc23)CN1C(=O)[C@H](CCC(=O)N1C[C@H]2C[C@@H]1C(=O)O2)NC(=O)OC(C)(C)C)C(=O)NS(=O)(=O)C1CC1 (some centres unmarked) [XVI-8] | < 1 nM | G (>70% modification) | – | –
11 | C=C[C@@H]1C[C@]1(NC(=O)[C@@H]1CC(Oc2nccc3cc(OC)ccc23)CN1C(=O)[C@H](CCC(=O)N1CC[C@H]2C[C@@H]1C(=O)O2)NC(=O)OC(C)(C)C)C(=O)NS(=O)(=O)C1CC1 (some centres unmarked) [XVI-2] | < 1 nM | K (≤30% modification) | – | –
12 | C=C[C@@H]1C[C@]1(NC(=O)[C@@H]1CC(Oc2nccc3cc(OC)ccc23)CN1C(=O)[C@H](CC(=O)N1C[C@@H]2C[C@H]1C(=O)O2)NC(=O)OC(C)(C)C)C(=O)NS(=O)(=O)C1CC1 (some centres unmarked) [XVI-7] | 1 to 10 nM | H (>50% and ≤70% modification) | – | –
13 | C=C[C@@H]1C[C@]1(NC(=O)[C@@H]1C[C@@H](OC(=O)N2Cc3cccc(F)c3C2)CN1C(=O)[C@H](CNC(=O)c1cc(C(C)=O)oc1C)NC(=O)OC(C)(C)C)C(=O)NS(=O)(=O)C1CC1 [XVI-4] | 100 to 1000 nM | K (≤30% modification) | – | –
14 | C=C[C@@H]1C[C@]1(NC(=O)[C@@H]1CC(OC(=O)N2Cc3cccc(F)c3C2)CN1C(=O)[C@H](COC(=O)N[C@@H]1C(=O)O[C@@H]1C)NC(=O)OC(C)(C)C)C(=O)NS(=O)(=O)C1CC1 (stereo partly drawn) [XVI-25, (5S)-1-((S)-2-(tert-butoxycarbonylamino)-3-((2R,3S)-2-methyl-4-oxooxetan-3-ylcarbamoyloxy)propanoyl)-5-((1R,2S)-1-(cyclopropylsulfonylcarbamoyl)-2-vinylcyclopropylcarbamoyl)pyrrolidin-3-yl 4-fluoroisoindoline-2-carboxylate] | < 1 nM | K (≤30% modification) | – | –
15 | C=C[C@@H]1C[C@]1(NC(=O)[C@@H]1CC(Oc2nccc3cc(OC)ccc23)CN1C(=O)[C@H](CCC(=O)N1C[C@@H]2CC[C@H]1C(=O)O2)NC(=O)OC(C)(C)C)C(=O)NS(=O)(=O)C1CC1 (stereo partly drawn) [XVI-3, tert-butyl(2S)-1-((2S)-2-((1R,2S)-1-(cyclopropylsulfonylcarbamoyl)-2-vinylcyclopropylcarbamoyl)-4-(6-methoxyisoquinolin-1-yloxy)pyrrolidin-1-yl)-1,5-dioxo-5-((1S,4S)-3-oxo-2-oxa-5-azabicyclo[2.2.2]octan-5-yl)pentan-2-ylcarbamate] | < 1 nM | K (≤30% modification) | – | –
